Measured values from article PMC5559473, “Screening of TB Actives for Activity against Nontuberculous Mycobacteria Delivers High Hit Rates” (Frontiers in Microbiology, 2017).
Converted amounts (≈) assume the structure as drawn. “And” between values parts separate entries of the source, which are not always exact repeats. Identical values can stand only once. Like-named read-outs stand apart in the source and are kept apart here.

What was measured:
M. tuberculosis H37Rv = experiment: Dose-response growth inhibition (broth microdilution); assay type: cell-based; conditions: Mycobacterium tuberculosis, 168 h
M. abscessus Bamboo [1] = experiment: as above; assay type: cell-based, Mycobacterium abscessus; conditions: Mycobacteroides abscessus, 72 h
M. avium 11 [2] = experiment: as above; assay type: cell-based, Mycobacterium avium
[3] = rat, cited from earlier work
M. avium 11 [4] = experiment: Bactericidal assay (CFU, fold kill); assay type: cell-based, Mycobacterium avium
M. tuberculosis = system: M. tuberculosis; design: method as in http://www.pathogenbox.org/; conditions: as reported by MMV, ref http://www.pathogenbox.org/; cited from earlier work
M. abscessus Bamboo [5] = experiment: Bactericidal assay (CFU, fold kill); assay type: cell-based, Mycobacterium abscessus; conditions: 10^7 CFU/mL exposed to MIC90 for 3 days, CFU vs starting inoculum
M. avium 11 [6] = experiment: Single point growth inhibition screening assay; assay type: cell-based, Mycobacterium avium; conditions: M. avium 11, 20 μM, 4 days
M. abscessus = conditions: ref Lavollay et al., 2014; cited from earlier work
[7] = M. tuberculosis H37Rv, 7 days, concentration that inhibits 50% of growth, read-out: MIC50
[8] = M. tuberculosis H37Rv, 7 days, concentration that inhibits 90% of growth, read-out: MIC90
[9] = M. abscessus Bamboo, 3 days, read-out: MIC50
[10] = M. abscessus Bamboo, 3 days, read-out: MIC90
[11] = Mycobacterium avium, 96 h, M. avium 11, 4 days, read-out: MIC50
[12] = Mycobacterium avium, 96 h, M. avium 11, 4 days, read-out: MIC90
[13] = IV 1 mg/kg, mean n = 2, ref http://www.pathogenbox.org/
[14] = PO 5 mg/kg, mean n = 2, ref http://www.pathogenbox.org/

## COc1ccc2nccc(NC(=O)C3CCN(CCc4ccc(Cl)cc4)CC3)c2n1 [MMV688844]
M. tuberculosis H37Rv; [7]
  MIC50: 0.2 µM (≈ 0.085 µg/mL)
M. tuberculosis H37Rv; [8]
  MIC90: 2.8 µM (≈ 1.19 µg/mL)
M. abscessus Bamboo [1]; [9]
  MIC50: 4.5 µM (≈ 1.91 µg/mL)
M. abscessus Bamboo [1]; [10]
  MIC90: 11 µM (≈ 4.67 µg/mL)
M. avium 11 [2]; Mycobacterium avium, 11, read-out: Concentration at which 80% growth inhibition was achieved (printed in MIC90 column)
  MIC90: 6 µM (≈ 2.55 µg/mL)
M. avium 11 [2]; [11]
  MIC50: 2 µM (≈ 0.85 µg/mL)
M. avium 11 [2]; [12]
  MIC90: > 50 µM
[3]; in vivo, iv, 1 mg/kg
  AUCinf: 167 ng·h/mL
  AUClast: 164 ng·h/mL
  C0: 116 ng/mL
  Cl: 102 mL/min/kg
M. avium 11 [4]; at 6 μM (80% growth inhibition), MIC90 not reached
  Fold kill (Fold kill at MIC90): NK^# (NK, “no kill,” i.e., CFU reduction < 10-fold at MIC90)
M. tuberculosis
  Reported MIC: 0.4 µM
M. abscessus Bamboo [5]
  Fold kill at MIC90: 100 fold

## O=C(N[C@H](Cc1ccccc1)C(=O)Nc1ccccc1N1CCOCC1)c1cccs1 [MMV688845]
M. tuberculosis H37Rv; [7]
  MIC50: < 0.2 µM
M. tuberculosis H37Rv; [8]
  MIC90: 1.7 µM (≈ 0.74 µg/mL)
M. abscessus Bamboo [1]; [9]
  MIC50: 1.5 µM (≈ 0.653 µg/mL)
M. abscessus Bamboo [1]; [10]
  MIC90: 7 µM (≈ 3.05 µg/mL)
M. avium 11 [2]; [11]
  MIC50: 0.6 µM (≈ 0.261 µg/mL)
M. avium 11 [2]; [12]
  MIC90: 3 µM (≈ 1.31 µg/mL)
[3]; in vivo, iv, 1 mg/kg
  AUCinf: 174 ng·h/mL
  AUClast: 171 ng·h/mL
  C0: 716 ng/mL
  Cl: 96.3 mL/min/kg
[3]; in vivo, po, 5 mg/kg
  AUClast: 3.95 ng·h/mL
  tmax: 0.375 h
[3]; in vivo
  %F: <1%
M. avium 11 [4]; 10^7 CFU/mL exposed to MIC90 for 4 days, CFU vs starting inoculum
  Fold kill at MIC90: NK (NK, “no kill,” i.e., CFU reduction < 10-fold at MIC90)
M. tuberculosis
  Reported MIC: 1.2 µM
M. abscessus Bamboo [5]
  Fold kill at MIC90: 10 fold

## Cc1ccccc1CN1CCC(O)(c2ccc(Cl)c(C(F)(F)F)c2)CC1 [MMV688846]
M. tuberculosis H37Rv; H37RV
  MIC50: 0.2 µM (≈ 0.0768 µg/mL)
  MIC90: 0.6 µM (≈ 0.23 µg/mL)
M. abscessus Bamboo [1]
  MIC50: 0.7 µM (≈ 0.269 µg/mL)
  MIC90: 1.5 µM (≈ 0.576 µg/mL)
M. avium 11 [2]; Mycobacterium avium, 11, 96 h
  MIC50: 20 µM (≈ 7.68 µg/mL)
M. avium 11 [2]; Mycobacterium avium, 11, 96 h, read-out: MIC90
  IC90: > 50 µM
[3]; [13]
  AUCinf: 464 ng·h/mL
  AUClast: 423 ng·h/mL
  C0: 563 ng/mL
  Cl: 36.8 mL/min/kg
  Vss: 14.4 L/kg
  t1/2: 9.78 h
[3]; PO 5 mg/kg vs IV 1 mg/kg, ref http://www.pathogenbox.org/
  %F: <1%
[3]; PO 5 mg/kg, mean n = 2, BLQ = < 1 ng/mL, ref http://www.pathogenbox.org/
  Cmax: 3.19 ng/mL
[3]; [14]
  AUCinf: 27.5 ng·h/mL
  AUClast: 18.1 ng·h/mL
  t1/2: 4.6 h
  tmax: 1.5 h
M. tuberculosis
  Reported MIC: 0.4 µM
M. abscessus Bamboo [5]
  Fold kill at MIC90: 10 fold

## CC(C)/N=c1\cc2n(-c3ccc(Cl)cc3)c3ccccc3nc-2cc1Nc1ccc(Cl)cc1 [clofazimine]
M. avium 11 [6]
  Activity in primary screen (hit = equal or more than 80% growth inhibition): M. avium-specific hits

## C[C@]1(COc2ccc(N3CCC(Oc4ccc(OC(F)(F)F)cc4)CC3)cc2)Cn2cc([N+](=O)[O-])nc2O1 [delamanid]
M. avium 11 [6]
  Activity in primary screen (hit = equal or more than 80% growth inhibition): M. avium-specific hits

## C[C@@H](O)[C@H]1C(=O)N2C(C(=O)O)=C(SCCN=CN)C[C@H]12 [imipenem]
M. abscessus
  MIC: around 27 μM and ~8 mg/L

## OC(c1cc(C(F)(F)F)nc2c(C(F)(F)F)cccc12)C1CCCCN1 (stereo not shown) [mefloquine]
M. avium 11 [6]
  Activity in primary screen (hit = equal or more than 80% growth inhibition): M. avium-specific hits

## [H]/N=C(/N)N[C@H]1[C@H](O)[C@@H](O)[C@H](O[C@@H]2O[C@@H](C)[C@](O)(C=O)[C@H]2O[C@@H]2O[C@@H](CO)[C@H](O)[C@@H](O)[C@@H]2NC)[C@@H](N/C(N)=N\[H])[C@@H]1O [streptomycin]
M. avium 11 [6]
  Activity in primary screen (hit = equal or more than 80% growth inhibition): M. avium-specific hits
